Laboratory results as given in patent US4681091A, “Combination modality cancer therapy” (priority 1985, dated 1987).
Where two headings read alike, the source gives them in different places.

Tests used:
[1] = system: bacterial cells (salmonella typhimurium TM677)
mammalian cell culture [2] = assay: cells
Text: Immediately after addition of the drug to the culture media, the petri dishes containing the cells are placed into aluminium chambers which are then degassed and purged with nitrogen to produce hypoxia. The degassing/back-filling cycle is repeated two times and the cells are irradiated with cobalt-60 gamma rays in the aluminium chambers at the end of the two hours. Control, un-irradiated cell cultures are exposed to the drug in various concentrations to assess drug cytotoxicity. Immediately following irradiation the cells are removed from the petri dishes using trypsin enzyme for 6 minutes, pipetted into single cell suspensions, and serially diluted for subculturing in triplicate petri dishes containing 5 cc of fresh culture media without the test compound. These dishes are incubated in 5% CO2 at 37° C. for 10 days and, following staining, the colonies are counted to produce survival curves (surviving fraction of cells versus compound concentration or radiation dose). As in the bacterial radiosensitization tests, baseline curves for irradiation of the mammalian cells under oxic and hypoxic conditions in the absence of the compound are also determined to allow a quantitative estimation of the efficiency of the compound in sensitizing the cells to radiation-induced killing by deriving enhancement ratios.
In FIG. 3, the dotted line represents the standard or average reported misonidazole response. The symbols " " and ` ` represent experimental misonidazole response and the experimental Rh compound response respectively.

mammalian cell culture [3] = conditions: for 1 hour Aerobic Cytotoxicity: aerobic mammalian cell culture; for 1 hour hypoxic cytotoxicity: hypoxic mammalian cell culture
[4] = system: bacterial cells (salmonella typhimurium TM677); conditions: salmonella typhimurium tm677, 0 h, 200 µM
in vitro = conditions: salmonella typhimurium tm677, N/No (toxicity)

[Cl][Rh]([Cl])[Cl] [rhodium trichloride]
toxicity, water solubility or sensitisation effect (combined statement) [1]: either too toxic, not soluble in water or failed altogether to show a sensitisation effect

[O-2].[O-2].[O-2].[Rh+3].[Rh+3] [rhodium oxide]
toxicity, water solubility or sensitisation effect (combined statement) [1]: either too toxic, not soluble in water or failed altogether to show a sensitisation effect

COCC(O)Cn1ccnc1[N+](=O)[O-] (stereo not shown) [misonidazole, reference compound]
EC (SER 1.6) (mammalian cell culture [2]; read-out: C1.6: concentration required to give an ser (sensitizer enhancement ratio) of 1.6): 1500 µM

dichlorobis (ethylenediamine) rhodium (III) [Compound 3]
improvement for cell-kill (N/No), sensitised vs unsensitised cells [1]: dramatic improvement for cell-kill (N/No)

NCCN.NCCN.[Cl-].[Cl-].[Cl-].[Cl-].[Cl-].[Cl-].[Cl-].[Cl-].[NH3+]CC[NH3+].[Rh+3].[Rh+3] [[RhenCl4]2 [enH2]]
aerobic (oxic) response (mammalian cell culture [2]; FIG. 3, aerobic (oxic)): effectively zero | effectiveness compared with misonidazole (mammalian cell culture [2]; from concentrations giving ser 1.6): 75% | 1 hour Aerobic Cytotoxicity (mammalian cell culture [3]; 100 µM): 78.0% | 1 hour Aerobic Cytotoxicity (mammalian cell culture [3]; 1000 µM): 61.0% | 1 hour Aerobic Cytotoxicity (mammalian cell culture [3]; 10000 µM): 6.1% | 1 hour hypoxic cytotoxicity (mammalian cell culture [3]; 100 µM): 95% | 1 hour hypoxic cytotoxicity (mammalian cell culture [3]; 330 µM): 83.6% | 1 hour hypoxic cytotoxicity (mammalian cell culture [3]; 1000 µM): 62.7% | 1 hour hypoxic cytotoxicity (mammalian cell culture [3]; 3300 µM): 22% | 1 hour hypoxic cytotoxicity (mammalian cell culture [3]; 10000 µM): < 1%

CCCC[N+](CCCC)(CCCC)CCCC.[C-]#[O+].[C-]#[O+].[Cl-].[Cl-].[Rh+] [tetra-n-butylammoniumdicarbonyldichlororhodium (I)]
toxicity, water solubility or sensitisation effect (combined statement) [1]: either too toxic, not soluble in water or failed altogether to show a sensitisation effect

O=[N+]([O-])[Rh-3]([N+](=O)[O-])([N+](=O)[O-])([N+](=O)[O-])([N+](=O)[O-])[N+](=O)[O-].[K+].[K+].[K+] [Compound 2, potassium hexanitrorhodium (III)]
N/No (toxicity) [4]: 1 | improvement for cell-kill (N/No), sensitised vs unsensitised cells [1]: dramatic improvement for cell-kill (N/No) | viability at 0 h, 200 µM (in vitro): 100% | viability at 0.5 h, 200 µM (in vitro): 105%
